{
  "source": "patent US10393636B2",
  "about": "(priority 2017, dated 2019)",
  "origin": "cited, not measured here",
  "data": [
    {"compound": "CN[C@H]1CC[C@@H](c2ccc(Cl)c(Cl)c2)c2ccccc21", "note": "[Sertraline]", "values": [
      {"measurement": "Log P", "result": 5.06}
    ]}
  ]
}
